Key:
Homo sapiens [1] = species on record: Homo sapiens; assay: Compound was evaluated for the ability to inhibit […] induced platelet aggregation (U-IPA) in human platelet rich plasma.; type: functional; settings: read-out: I50
Homo sapiens [2] = species on record: Homo sapiens; assay: Compound was evaluated for the ability to inhibit arachidonic acid induced platelet aggregation (AAIPA) in human platelet rich plasma; type: functional; settings: read-out: I50
Thromboxane A2 receptor = molecular target: T1, Thromboxane A2 receptor (Homo sapiens, UniProt P21731); assay: Compound was evaluated for the receptor binding studies with Thromboxane A2 receptor using [3H]-SQ 29548 as radioligand in human platelet membranes.; type: cell membranes
T1 sequence (P21731 whole entry): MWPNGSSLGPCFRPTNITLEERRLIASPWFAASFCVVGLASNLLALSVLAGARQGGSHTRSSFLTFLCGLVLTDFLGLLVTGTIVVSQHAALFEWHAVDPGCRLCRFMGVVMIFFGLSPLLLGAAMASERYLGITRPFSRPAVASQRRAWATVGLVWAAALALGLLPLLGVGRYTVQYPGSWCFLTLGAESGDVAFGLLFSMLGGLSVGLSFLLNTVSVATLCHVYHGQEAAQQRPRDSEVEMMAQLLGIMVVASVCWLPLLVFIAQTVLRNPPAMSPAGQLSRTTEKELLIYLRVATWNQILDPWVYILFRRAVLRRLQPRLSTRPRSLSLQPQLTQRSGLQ

Mus musculus = assay: Compound (0.2 mpk/po) was evaluated for the ability to protect from U-46,619 induced lethality in mice as a function of time one half of the population survives from time of dosage; type: functional

## CC(C)(C)CCCCCCNC(=O)c1coc(C2C3CCC(O3)C2Cc2ccccc2CCC(=O)O)n1 (stereo unspecified)
Homo sapiens [1]
  IC50: 5 nM
Homo sapiens [2]
  IC50: 3 nM

## O=C(O)CCc1ccccc1CC1C2CCC(O2)C1c1nc(C(=O)NCCCCc2ccc(Cl)cc2)co1 (stereo unspecified)
Homo sapiens [1]
  IC50: 13 nM
Homo sapiens [2]
  IC50: 4 nM

## CCCCCCCNC(=O)c1coc(C2C3CCC(O3)C2Cc2ccccc2CCC(=O)O)n1 (stereo unspecified)
Homo sapiens [1]
  IC50: 13 nM
Homo sapiens [2]
  IC50: 2 nM

## O=C(O)CCc1ccccc1CC1C2CCC(O2)C1c1nc(C(=O)NC2CCCCC2)co1 (stereo unspecified)
Homo sapiens [1]
  IC50: 25 nM
Homo sapiens [2]
  IC50: 3 nM

## O=C(O)CCc1ccccc1CC1C2CCC(O2)C1c1nc(C(=O)NCCCCC2CCCCC2)co1 (stereo unspecified)
Homo sapiens [1]
  IC50: 6 nM
Thromboxane A2 receptor
  Kd: 0.1 nM
Mus musculus
  T50: 23 h
Homo sapiens [2]
  IC50: 2 nM

## CNC(=O)c1coc(C2C3CCC(O3)C2Cc2ccccc2CCC(=O)O)n1 (stereo unspecified)
Homo sapiens [1]
  IC50: 81 nM
Homo sapiens [2]
  IC50: 20 nM

## CCCCCCCCCCNC(=O)c1coc(C2C3CCC(O3)C2Cc2ccccc2CCC(=O)O)n1 (stereo unspecified)
Homo sapiens [1]
  IC50: 6 nM
Homo sapiens [2]
  IC50: 1 nM

From ChEMBL document CHEMBL1126002, “Interphenylene 7-oxabicyclo[2.2.1]heptanes. SQ33,961: a new potent, long-acting thromboxane antagonist” (Bioorg Med Chem Lett, 1991)
